≈ marks a conversion by molar mass, not a printed value. Where “and” joins values, the source holds several entries; their conditions need not be identical. Equal values may be shown once. Read-outs that look alike come from different tables or passages of the source. Square brackets hold non-standard residues; d marks the D form. Peptide text beside a SMILES is read from it.
How the values were obtained:
[1] = female, BALB/c, mouse, 1 h, 2 μM, pH 7.4
SARS-CoV-2 [2] = assay: microbe, parasite or virus in culture; details: for AC50: Severe acute respiratory syndrome coronavirus 2, HeLa-ACE2, read-out: Log AC50 (converted); for inhibition at 9.61 µM: Severe acute respiratory syndrome coronavirus 2, HeLa-ACE2, read-out: inhibition in the highest concentration tested
SARS-CoV-2 [3] = details: for Data Mode: Hela-ACE2 % Positive SARS-CoV-2; for S0 / Sinf / nHill: Hela-ACE2 % Positive SARS-CoV-2, curve fit
in vitro [4] = details: human, uninfected HeLa-ACE2 cells
HeLa-ACE2 cells [5] = tested on: HeLa-ACE2 cells
HeLa-ACE2 cells [6] = assay: cells; details: Homo sapiens
in vitro [7] = details: CD1, mouse, microsomes, pH 7.4
[8] = Mouse liver microsomal stability assay; details: CD1, mouse, liver microsomes, pH 7.4
physchem [9] = details: 25 °C, kinetic from dmso stock
[10] = tested on: uninfected HeLa-ACE2 cells; details: Hela-ACE2 Uninfected Cell Toxicity; for qAC50: relation in column qAC50 Mode, unit not given; for S0 / Sinf / nHill: curve fit
Plasma stability = details: female, BALB/c, mouse, plasma, pH 7.4
PL^pro = PL^pro (Severe acute respiratory syndrome coronavirus 2, UniProt P0DTD1); details: 20 μM compound, 5 μM enzyme, average of triplicates with SD
[11] = Human liver microsomal stability assay; details: human, liver microsomes, pH 7.4
in vitro [12] = details: PAMPA
in vitro [13] = details: human, microsomes, pH 7.4
physchem [14] = details: pH 7.4
SARS-CoV-2 PL^pro = SARS-CoV-2 PL^pro (Severe acute respiratory syndrome coronavirus 2, UniProt P0DTD1); assay type: biochemical; details: single dose 10 μM end point screen
[15] = Severe acute respiratory syndrome coronavirus 2, HeLa-ACE2, read-out: SARS-CoV-2 EC50, HeLa-ACE2 cells, average of triplicates
[16] = Severe acute respiratory syndrome coronavirus 2, HeLa-ACE2, read-out: qAC50, Hela-ACE2 % Positive SARS-CoV-2, relation in column qAC50 Mode, unit inferred
[17] = uninfected HeLa-ACE2 CC50, supplement summary
[18] = uninfected HeLa-ACE2 CC50, uninfected HeLa-ACE2 cells, average of triplicates
[19] = Hela-ACE2 CoV-2 Total Cell count
[20] = HeLa-ACE2, read-out: HeLa-ACE2 Total cells EC50
[21] = Severe acute respiratory syndrome coronavirus 2, HeLa-ACE2, read-out: CoV-2 EC50
[22] = Severe acute respiratory syndrome coronavirus 2, HeLa-ACE2, read-out: SARS-CoV-2 EC50
[23] = Severe acute respiratory syndrome coronavirus 2, HeLa-ACE2, read-out: qAC50
[24] = Hela-ACE2 CoV-2 Total Cell count, curve fit

SMILES	plasma stability remaining 60 min [1]	Data Mode (SARS-CoV-2 [3])	CC50 at 24 h (in vitro [4]; [17])	CC50 at 24 h (in vitro [4]; [18])	Data Mode (HeLa-ACE2 cells [5]; [19])	EC50 (HeLa-ACE2 cells [6]; [20])	EC50 (HeLa-ACE2 cells [6]; HeLa-ACE2, read-out: qAC50)	microsomal CLint at 0.5 μM (in vitro [7])	half-life at 0.5 μM [8]	solubility kinetic at 24 h (physchem [9]; pH 2, aqueous buffer)	solubility kinetic at 24 h (physchem [9]; pH 7.4, aqueous buffer)	Data Mode [10]	qAC50 [10]	half-life at 2 μM (Plasma stability)	ΔT m (PL^pro)	half-life at 0.5 μM [11]	Papp at 5 h, 10 μM (in vitro [12])	microsomal CLint at 0.5 μM (in vitro [13])	chromatographic logD (physchem [14])	AC50 (SARS-CoV-2 [2])	also measured
C[C@@H](c1cccc2ccccc12)N1CCC(C(=O)NCC2CCCCC2)CC1 (racemic) [Compound 11]	47.10%	inactive	> 39.8 µM	> 39.8 µM	inactive	> 9.61 µM	> 9.61 µM	354 µL/min/mg	7.84 min	> 23.1 µg/mL	6.15 µg/mL (≈ 16.2 µM)	inactive	> 3.984e-5	5.25 h	0.90 ± 0.07 °C	13.2 min	0.35 ×10⁻⁶ cm/s	209 µL/min/mg	4.8		EC50 (SARS-CoV-2 [2]; [15]): > 9.61 µM; EC50 (SARS-CoV-2 [2]; [16]): > 9.61 µM
Cc1ccc(CNC(=O)C2CCN([C@@H](C)c3cccc4ccccc34)CC2)cc1 (stereo in doubt) [Compound 5]	33.79%	decreasing (weakly active)	> 39.8 µM	> 39.8 µM	inactive	> 9.61 µM	> 9.61 µM	292 µL/min/mg	9.48 min	> 25 µg/mL	8.62 µg/mL (≈ 22.3 µM)	inactive	> 3.984e-5	3.98 h	5.57 °C and 5.57 ± 0.09 °C	18.2 min	0.67 ×10⁻⁶ cm/s	152 µL/min/mg	4.55	> 9.61 µM	EC50 (SARS-CoV-2 [2]; [15]): > 9.61 µM; EC50 (SARS-CoV-2 [2]; [16]): > 9.61 µM; CoV2 Efficacy (delta S0:Sinf) (SARS-CoV-2 [3]; HeLa-ACE2): 105.451; S0 (SARS-CoV-2 [3]): 5.451; Sinf (SARS-CoV-2 [3]): -100; nHill (SARS-CoV-2 [3]): 2.548
Cc1ccc(CNC(=O)C2CCN([C@H](C)c3cccc4ccccc34)CC2)cc1 [Compound 4]	58.47%	decreasing (weakly active)	> 39.8 µM	> 39.8 µM	inactive	> 9.61 µM	> 9.61 µM	214 µL/min/mg	13 min	> 24.2 µg/mL	8.09 µg/mL (≈ 20.9 µM)	inactive	> 3.984e-5	6.42 h	7.98 °C and 7.9 ± 0.6 °C	35.4 min	0.78 ×10⁻⁶ cm/s	78.4 µL/min/mg	4.56	> 9.61 µM	EC50 (SARS-CoV-2 [2]; [15]): > 9.61 µM; EC50 (SARS-CoV-2 [2]; [16]): > 9.61 µM; CoV2 Efficacy (delta S0:Sinf) (SARS-CoV-2 [3]; HeLa-ACE2): 103.282; S0 (SARS-CoV-2 [3]): 3.282; Sinf (SARS-CoV-2 [3]): -100; nHill (SARS-CoV-2 [3]): 1.703
C[C@H](c1cccc2ccccc12)N1CCC(C(=O)NCc2ccc(Cl)cc2)CC1 [Compound 12]	89.75%	decreasing	14.5 µM	14.4 ± 0.2 µM	inactive	> 9.61 µM	> 9.61 µM	226 µL/min/mg	12.3 min	> 24.1 µg/mL	10.2 µg/mL (≈ 25.1 µM)	decreasing	1.447e-5	38.5 h	6.6 °C and 6.6 ± 0.2 °C	28.5 min	0.25 ×10⁻⁶ cm/s	97.2 µL/min/mg	4.7	2.97 µM	EC50 (SARS-CoV-2 [2]; [21]): 2.97 µM; EC50 (SARS-CoV-2 [2]; [22]): 2.9 ± 0.2 µM; inhibition at 9.61 µM (SARS-CoV-2 [2]): > 50%; EC50 (SARS-CoV-2 [2]; [23]): 2.97 µM; CoV2 Efficacy (delta S0:Sinf) (SARS-CoV-2 [3]; HeLa-ACE2): 104.049; SI (average CC50/average EC50) (SARS-CoV-2 [3]; HeLa-ACE2): 4.8; S0 (SARS-CoV-2 [3]): 4.049; Sinf (SARS-CoV-2 [3]): -100; nHill (SARS-CoV-2 [3]): 4; SI (average CC50/average EC50) (SARS-CoV-2 [3]; supplement summary): 4.873; AC50 at 24 h (in vitro [4]): 14.5 µM; S0 [10]: 0.4208; Sinf [10]: -100; nHill [10]: 3.064
CC(c1cccc2ccccc12)N1CCC(C(=O)NCc2ccc(Cl)cc2)CC1 (stereo not shown) [Compound 13]	46.83%	decreasing	18.9 µM	18.8 ± 0.2 µM	increasing (weakly active)	> 9.61 µM	> 9.61 µM	302 µL/min/mg	9.19 min	> 24.4 µg/mL	> 13.4 µg/mL	decreasing	1.885e-5	6.08 h	6.15 °C and 6.1 ± 0.4 °C	15.1 min	0.3 ×10⁻⁶ cm/s	184 µL/min/mg	4.7	3.71 µM	EC50 (SARS-CoV-2 [2]; [21]): 3.71 µM; EC50 (SARS-CoV-2 [2]; [22]): 3.7 ± 0.5 µM; inhibition at 9.61 µM (SARS-CoV-2 [2]): > 50%; EC50 (SARS-CoV-2 [2]; [23]): 3.71 µM; CoV2 Efficacy (delta S0:Sinf) (SARS-CoV-2 [3]; HeLa-ACE2): 104.884; SI (average CC50/average EC50) (SARS-CoV-2 [3]; HeLa-ACE2): 5; S0 (SARS-CoV-2 [3]): 4.884; Sinf (SARS-CoV-2 [3]): -100; nHill (SARS-CoV-2 [3]): 3.857; SI (average CC50/average EC50) (SARS-CoV-2 [3]; supplement summary): 5.083; Tags (tier) (SARS-CoV-2 [3]; tier of the screening summary): 3 (EC50< 10 µM, Efficacy >40%, SI > 5 or CC50 not reached at maximum concentration tested); AC50 at 24 h (in vitro [4]): 18.9 µM; S0 (HeLa-ACE2 cells [5]; [24]): -15.6144; Sinf (HeLa-ACE2 cells [5]; [24]): 100; nHill (HeLa-ACE2 cells [5]; [24]): 0.852; HeLa-ACE2 Total Cell Efficacy (Sinf, note + or -) (HeLa-ACE2 cells [5]; infected HeLa-ACE2 total cell count): 0.852; AC50 (HeLa-ACE2 cells [6]; HeLa-ACE2, read-out: Log AC50 (converted)): > 9.61 µM; S0 [10]: -6.029; Sinf [10]: -100; nHill [10]: 4
C[C@@H](N)C(=O)N[C@H](CCCCN)C(=O)N[C@H](CCCNC(=N)N)C(=O)N[C@H](Cc1c[nH]cn1)C(=O)N[C@H](Cc1c[nH]cn1)C(=O)NCC(=O)N[C@H](Cc1ccc(O)cc1)C(=O)N[C@H](CCCCN)C(=O)N[C@H](CCCNC(=N)N)C(=O)N[C@H](CCCCN)C(=O)N[C@H](Cc1ccccc1)C(=O)N[C@H](Cc1c[nH]cn1)C(N)=O [P-113D] (H-[dA][dK][dR][dH][dH]G[dY][dK][dR][dK][dF][dH]-NH2)																					inhibition of SARS-CoV-2 PL^pro (SARS-CoV-2 PL^pro): ≥ 80%

— PMC12461331, “Screening of Medicines for Malaria Venture Open Boxes Identifies Potent SARS-CoV‑2 Papain-like Protease (PL^pro) Inhibitors” (ACS Omega, 2025)
